Laboratory results reported in ChEMBL document CHEMBL2086259, “13,28-Epoxy triterpenoid saponins from Ardisia japonica selectively inhibit proliferation of liver cancer cells without affecting normal liver cells” (Bioorg Med Chem Lett, 2012).
pIC50: −log10 of the molar value.

Assays:
[1] = Cytotoxicity against human HL-7702 cells after 72 hrs by MTT assay; type: cell-based; conditions: L02, 72 h
HepG2 = assay: Cytotoxicity against human HepG2 cells after 72 hrs by MTT assay; type: functional, cell-based; conditions: HepG2, 72 h
Bel-7402 = assay: Cytotoxicity against human Bel7402 cells after 72 hrs by MTT assay; type: functional, cell-based; conditions: Bel-7402, 72 h

Structure (SMILES) | pIC50 [1] | pIC50 (HepG2) | pIC50 (Bel-7402)
CC1(C)[C@@H](O[C@@H]2OC[C@H](O[C@@H]3O[C@H](CO)[C@@H](O)[C@H](O[C@@H]4O[C@H](CO)[C@@H](O)[C@H](O)[C@H]4O)[C@H]3O[C@@H]3OC[C@@H](O)[C@H](O)[C@H]3O)[C@H](O)[C@H]2O[C@@H]2O[C@H](CO)[C@@H](O)[C@H](O)[C@H]2O)CC[C@]2(C)[C@H]3CC[C@]45OC[C@@]6(CC[C@](C)(C=O)C[C@H]64)[C@H](O)C[C@@]5(C)[C@]3(C)CC[C@@H]12 [CYCLAMIN] | < 4.00 | 4.91 | 5.41
C[C@@H]1O[C@@H](O[C@H]2[C@H](O[C@H]3CO[C@@H](O[C@H]4CC[C@]5(C)[C@H]6CC=C7[C@@H]8C[C@@](C)(C(=O)O)CC[C@]8(CO)[C@H](O)C[C@@]7(C)[C@]6(C)CC[C@H]5C4(C)C)[C@H](O[C@@H]4O[C@H](CO)[C@@H](O)[C@H](O)[C@H]4O)[C@H]3O)O[C@H](CO)[C@@H](O)[C@@H]2O)[C@H](O)[C@H](O)[C@H]1O | < 4.00 | < 4.00 | < 4.00
C[C@@H]1O[C@@H](O[C@H]2[C@H](O[C@H]3CO[C@@H](O[C@H]4CC[C@]5(C)[C@H]6CC[C@]78OC[C@@]9(CC[C@](C)(O)C[C@H]97)[C@H](O)C[C@@]8(C)[C@]6(C)CC[C@H]5C4(C)C)[C@H](O[C@@H]4O[C@H](CO)[C@@H](O)[C@H](O)[C@H]4O)[C@H]3O)O[C@H](CO)[C@@H](O)[C@@H]2O)[C@H](O)[C@H](O)[C@H]1O [ARDISIANOSIDE G] | < 4.00 | < 4.00 | < 4.00
C[C@@H]1O[C@@H](O[C@H]2[C@H](O[C@H]3CO[C@@H](O[C@H]4CC[C@]5(C)[C@H]6CC[C@]78OC[C@@]9(CC[C@](C)(C=O)C[C@H]97)[C@H](O)C[C@@]8(C)[C@]6(C)CC[C@H]5C4(C)C)[C@H](O[C@@H]4O[C@H](CO)[C@@H](O)[C@H](O)[C@H]4O)[C@H]3O)O[C@H](CO)[C@@H](O)[C@@H]2O)[C@H](O)[C@H](O)[C@H]1O [ARDISIACRISPIN B] | < 4.00 | 4.68 | 5.35
C[C@@H]1O[C@@H](O[C@H]2[C@H](O[C@H]3CO[C@@H](O[C@H]4CC[C@]5(C)[C@H]6CC[C@]78OC[C@@]9(CC[C@](C)(C(=O)O)C[C@H]97)C(=O)C[C@@]8(C)[C@]6(C)CC[C@H]5C4(C)C)[C@H](O[C@@H]4O[C@H](CO)[C@@H](O)[C@H](O)[C@H]4O)[C@H]3O)O[C@H](CO)[C@@H](O)[C@@H]2O)[C@H](O)[C@H](O)[C@H]1O | < 4.00 | < 4.00 | < 4.00
C[C@@H]1O[C@@H](O[C@H]2[C@H](O[C@H]3CO[C@@H](O[C@H]4CC[C@]5(C)[C@H]6CC=C7[C@@H]8C[C@@](C)(CO)CC[C@]8(CO)[C@H](O)C[C@@]7(C)[C@]6(C)CC[C@H]5C4(C)C)[C@H](O[C@@H]4O[C@H](CO)[C@@H](O)[C@H](O)[C@H]4O)[C@H]3O)O[C@H](CO)[C@@H](O)[C@@H]2O)[C@H](O)[C@H](O)[C@H]1O [ARDISIAMAMILLOSEDE C] | < 4.00 | < 4.00 | < 4.00
CC1(C)CC[C@]23C(=O)O[C@@]4(CC[C@@H]5[C@@]6(C)CC[C@H](O[C@@H]7OC[C@H](O[C@@H]8O[C@H](CO)[C@@H](O)[C@H](O[C@@H]9O[C@H](CO)[C@@H](O[C@@H]%10O[C@H](CO)[C@@H](O)[C@H](O)[C@H]%10O)[C@H](O[C@@H]%10O[C@H](CO)[C@@H](O)[C@H](O)[C@H]%10O)[C@H]9O)[C@H]8O[C@@H]8OC[C@@H](O)[C@H](O)[C@H]8O)[C@H](O)[C@H]7O[C@@H]7O[C@H](CO)[C@@H](O)[C@H](O)[C@H]7O)C(C)(C)[C@@H]6CC[C@@]5(C)[C@]4(C)C[C@H]2O)[C@@H]3C1 [ARDISIANOSIDE H] | < 4.00 | < 4.00 | < 4.00
COC(OC)[C@@]1(C)CC[C@]23CO[C@@]4(CC[C@@H]5[C@@]6(C)CC[C@H](O[C@@H]7OC[C@H](O[C@@H]8O[C@H](CO)[C@@H](O)[C@H](O)[C@H]8O[C@@H]8O[C@@H](C)[C@H](O)[C@@H](O)[C@H]8O)[C@H](O)[C@H]7O)C(C)(C)[C@@H]6CC[C@@]5(C)[C@]4(C)C[C@H]2O)[C@@H]3C1 | < 4.00 | < 4.00 | < 4.00
C[C@@H]1O[C@@H](O[C@H]2[C@H](O[C@H]3CO[C@@H](O[C@H]4CC[C@]5(C)[C@H]6CC[C@]78OC(=O)[C@@]9(CC[C@](C)(CO)C[C@H]97)[C@H](O)C[C@@]8(C)[C@]6(C)CC[C@H]5C4(C)C)[C@H](O[C@@H]4O[C@H](CO)[C@@H](O)[C@H](O)[C@H]4O)[C@H]3O)O[C@H](CO)[C@@H](O)[C@@H]2O)[C@H](O)[C@H](O)[C@H]1O [ARDISIANOSIDE I] | < 4.00 | < 4.00 | < 4.00
CC1(C)[C@@H](O[C@@H]2OC[C@H](O[C@@H]3O[C@H](CO)[C@@H](O)[C@H](O)[C@H]3O[C@@H]3OC[C@@H](O)[C@H](O)[C@H]3O)[C@H](O)[C@H]2O)CC[C@]2(C)[C@H]3CC[C@]45OC[C@@]6(CC[C@](C)(C=O)C[C@H]64)[C@H](O)C[C@@]5(C)[C@]3(C)CC[C@@H]12 [PRIMULANIN] | < 4.00 | < 4.00 | 5.39
C[C@@H]1O[C@@H](O[C@H]2[C@H](O[C@H]3CO[C@@H](O[C@H]4CC[C@]5(C)[C@H]6CC[C@]78OC[C@@]9(CC[C@](C)(C=O)C[C@H]97)C(=O)C[C@@]8(C)[C@]6(C)CC[C@H]5C4(C)C)[C@H](O)[C@H]3O)O[C@H](CO)[C@@H](O)[C@@H]2O)[C@H](O)[C@H](O)[C@H]1O [ARDISIAMAMILLOSIDE H] | < 4.00 | < 4.00 | < 4.00
C[C@@H]1O[C@@H](O[C@H]2[C@H](O[C@H]3CO[C@@H](O[C@H]4CC[C@]5(C)[C@H]6CC[C@]78OC[C@@]9(CCC(C)(C)C[C@H]97)[C@H](O)C[C@@]8(C)[C@]6(C)CC[C@H]5C4(C)C)[C@H](O)[C@H]3O)O[C@H](CO)[C@@H](O)[C@@H]2O)[C@H](O)[C@H](O)[C@H]1O [ARDISIANOSIDE C] | < 4.00 | 4.87 | 5.38
CC1(C)CC[C@]23CO[C@@]4(CC[C@@H]5[C@@]6(C)CC[C@H](O[C@@H]7OC[C@H](O[C@@H]8O[C@H](CO)[C@@H](O)[C@H](O[C@@H]9O[C@H](CO)[C@@H](O[C@@H]%10O[C@H](CO)[C@@H](O)[C@H](O)[C@H]%10O)[C@H](O[C@@H]%10O[C@H](CO)[C@@H](O)[C@H](O)[C@H]%10O)[C@H]9O)[C@H]8O[C@@H]8OC[C@@H](O)[C@H](O)[C@H]8O)[C@H](O)[C@H]7O[C@@H]7O[C@H](CO)[C@@H](O)[C@H](O)[C@H]7O)C(C)(C)[C@@H]6CC[C@@]5(C)[C@]4(C)C[C@H]2O)[C@@H]3C1 [ARDISIANOSIDES A] | < 4.00 | 5.42 | 5.86
CC1(C)CC[C@]23CO[C@@]4(CC[C@@H]5[C@@]6(C)CC[C@H](O[C@@H]7OC[C@H](O[C@@H]8O[C@H](CO)[C@@H](O)[C@H](O)[C@H]8O[C@@H]8OC[C@@H](O)[C@H](O)[C@H]8O)[C@H](O)[C@H]7O)C(C)(C)[C@@H]6CC[C@@]5(C)[C@]4(C)C[C@H]2O)[C@@H]3C1 [ARDISIANOSIDE D] | < 4.00 | 4.51 | 4.83
C[C@@H]1O[C@@H](O[C@H]2[C@H](O[C@H]3CO[C@@H](O[C@H]4CC[C@]5(C)[C@H]6CC[C@]78OC[C@@]9(CC[C@](C)(C=O)C[C@H]97)[C@H](O)C[C@@]8(C)[C@]6(C)CC[C@H]5C4(C)C)[C@H](O)[C@H]3O)O[C@H](CO)[C@@H](O)[C@@H]2O)[C@H](O)[C@H](O)[C@H]1O [CYCLAMIRETIN A] | < 4.00 | < 4.00 | < 4.00
C[C@@H]1O[C@@H](O[C@H]2[C@H](O[C@H]3CO[C@@H](O[C@H]4CC[C@]5(C)[C@H]6CC=C7[C@@H]8C[C@@](C)(CO)CC[C@]8(CO)[C@@H]8O[C@@H]8[C@@]7(C)[C@]6(C)CC[C@H]5C4(C)C)[C@H](O[C@@H]4O[C@H](CO)[C@@H](O)[C@H](O)[C@H]4O)[C@H]3O)O[C@H](CO)[C@@H](O)[C@@H]2O)[C@H](O)[C@H](O)[C@H]1O [ARDISIANOSIDE K] | < 4.00 | < 4.00 | < 4.00
CC1(C)CC[C@]23CO[C@@]4(CC[C@@H]5[C@@]6(C)CC[C@H](O[C@@H]7OC[C@H](O[C@@H]8O[C@H](CO)[C@@H](O)[C@H](O)[C@H]8O)[C@H](O)[C@H]7O[C@@H]7O[C@H](CO)[C@@H](O)[C@H](O)[C@H]7O)C(C)(C)[C@@H]6CC[C@@]5(C)[C@]4(C)C[C@H]2O)[C@@H]3C1 | < 4.00 | 4.84 | 5.38
C[C@@H]1O[C@@H](O[C@H]2[C@H](O[C@H]3CO[C@@H](O[C@H]4CC[C@]5(C)[C@H]6CC[C@]78OC[C@@]9(CC[C@](C)(CO)C[C@H]97)[C@H](O)C[C@@]8(C)[C@]6(C)CC[C@H]5C4(C)C)[C@H](O[C@@H]4O[C@H](CO)[C@@H](O)[C@H](O)[C@H]4O)[C@H]3O)O[C@H](CO)[C@@H](O)[C@@H]2O)[C@H](O)[C@H](O)[C@H]1O [ARDISICRENOSIDE A] | < 4.00 | < 4.00 | < 4.00
